Data set [1] can be described thus: In vitro release of 5-FU from double-layered breath figure PLGA films in PBS. The format is physicochemical. As for the experimental part:
IN VITRO RELEASE CHARACTERISTICS OF DOUBLE-LAYERED 5-FU-PLGA FILM. […] At specific time intervals, a 1 ml aliquot of the solution was withdrawn and 1 ml of fresh PBS was added to the vial to maintain constant volume. The pH of the medium was monitored during the course of the experiment to verify that the solution was buffered adequately during polymer degradation. Each aliquot was centrifuged to remove any possible debris from the degraded polymer components that could interfere with the absorbance readings and drug release was quantified through the absorbance measured at 266 nm. A standard calibration plot of 5-FU absorbance was constructed to correlate absorbance with drug release levels. All experiments were conducted with triplicate polymer samples.

The conditions of data set [2]: cited from earlier work.
For data set [3], the system named is COS-1 cells. Put plainly: Cytotoxicity of drug released into culture medium over timed intervals.
Data set [4] concerns LN-229 cells. The text has this:
(§1) HIGH PERFORMANCE LIQUID CHROMATOGRAPHY. […] DAD wavelength was set to 285 nm.
HPLC parameters are given in the materials and methods section and in the legend to FIG. 39. Data represent average values from 2 experiments in triplicate (n=6)±SD (SD values for some points are too small to be visible). […] To test this alternative interpretation, we collected conditioned medium from the LN-229 cells cultured for 72 hrs.

Data set [5] in a line: Tissue distribution of FF and FA after oral fenofibrate in mice (HPLC). The format is in vivo. The conditions noted are these: for concentration at 4 weeks: Balb c/nude, mouse, oral, 50 mg/kg/day. As to the method: ANIMAL STUDIES. […] according to the standard ethically accepted procedure, and the following organs/body fluids were collected: blood, urine, liver, kidneys, spleen, heart, lungs, intact brain and intracranial tumor tissue.
as §1
For body fluids concentrations are calculated per ml of the body fluid, and in solid tissues per mg of the tissue.

Data set [6] deals with blood-brain barrier (BBB) in vitro model. The conditions noted are these: coculture with inserts; cited from earlier work.
Data set [7] concerns LN-229 cells. Put plainly: Subcellular distribution of FF and FA in LN-229 membrane and cytosolic fractions (HPLC). Conditions: per 10^6 LN-229 cells, 25 μM fenofibrate, 24 hrs.
Procedure: (§2) Blood plasma, cell culture media, cellular and tissue lysates, were deproteinized by adding 150 μl of acetonitrile to 150 μl of sample, mixed well and centrifuged (15 000 g, 5 min). […] For the subcellular fractionation, subconfluent monolayer cultures were washed in phosphate buffered saline (PBS) twice, then cells were scraped and lysed in 2% sodium dodecyl sulphate (SDS) in PBS. The lysates were sonicated on ice and centrifuged (15 000 g, 5 min). Finally, 150 μl of the supernatant was mixed with the equal volume of acetonitrile, filtered through 0.22 μm centrifuge filter (Sigma) and analyzed by High Performance Liquid Chromatography (HPLC).
(§3) All data were obtained from the Agilent Technologies 1100 apparatus equipped with a line degasser, binary pump (high pressure mixer), autosampler, column thermostat and Diode Array Detector (DAD). The YMCBase, 3 μm 4.6×150 mm analytical column was used and solvent A—50 mM acetic acid in water or solvent B—acetonitrile, with isocratic flow 60%. Flow rate was set to 1 ml/min, column temperature was 20° C., and 5 μl of 0.22 μm filtered sample was injected. DAD wavelength was set to 285 nm.
(§4) Data represent average values from three separate measurements with standard deviation.
Data set [8] in a line: HPLC detection of FF to FA conversion in human blood. Format: in vitro ADME. Conditions: 50 μM FF in human blood, 4 hours, 37° C.
From the text: as §1

For data set [9] the following is noted: 120 h.
For data set [10], the system named is LN-229 cells. The conditions noted are these: human, 24 h, 25 µM.
Procedure: as §2, §3, §4
The subject of data set [11] is LN-229 cells. Put plainly: Clonogenic assay. The format is cell-based, human. Conditions: 12 days; drugs at 50 μM or wafer with 1 mg fenofibrate. As for the experimental part:
CHLONOGENIC ASSAY. […] Control cells were treated with the vehicle (DMSO). […] All the conditions were tested in duplicate and each experiment was performed at least three times.

Data set [12] relates to COS-1 cells. The data set is described as follows: COS-1 proliferation with MMC-loaded PLGA films, 5-day culture, toluidine blue. The format is cell-based. Conditions: MMC incorporated into the bulk PLGA film. As for the experimental part:
CELL CULTURE AND RELEASE STUDY. For the dose response study, control samples (no drug) and MMC-containing samples were loaded into sterile 12-well plates. […] COS-1 cells (10^4 cells) were added to each well and the cells were incubated at 37° C. in a humidified 5% CO2-95% air atmosphere. The culture medium was replenished on day 3 and day 5 after the cells were plated. After 5 days of culture, the cell accumulation in each culture dish was assessed. The culture medium was removed and the cell layer was gently washed 3 times with 5 mL of phosphate-buffered saline (PBS). […] The amount of dye in each well was measured by the absorbance at 650 nm, which is equivalent to the number of cells, using UV-Visible spectrophotometer (Model UB-1601, Shimadzu scientific instruments Inc, Houston, Tex.).
For the preliminary dose-response study, COS-1 cells (10^4 cells in 1 mL) were added to each well of a 12-well plate. […] After 5 days of culture, the cell accumulation in each culture dish was assessed by a modification of a previously described procedure (Leavesley D I, Ferguson G D, Wayner E A, et al. Requirement of the integrin beta 3 subunit for carcinoma cell spreading or migration on vitronectin and fibrinogen. J Cell Biol. 1992; 117:1101-1107.) Briefly, culture medium was removed and the cell layer was gently washed 2 times with 2 mL of phosphate-buffered saline (PBS). […]

Data set [13] in a line: In vitro release of MMC from surface-loaded PLGA films into PBS. Conditions: films loaded with 1 and 5 μg MMC, absorbance at 364 nm. Format: physicochemical. As for the experimental part: Aliquots (0.65 mL) of the PBS were removed at specific time intervals after immersion of the polymer samples, and absorbance was measured at 364 nm using a UV spectrophotometer (Shimadzu UV-1700 series). After measurement, the aliquots were returned to the vials to maintain constant volume and sink conditions.

Data set [14] is described as follows: Stability of MMC in PBS and after spin-casting in PLGA-dichloromethane. The format is physicochemical.
Data set [15] is described as follows: In vitro release of model drugs (salicylic acid, ibuprofen) from breath figure and non-porous PLGA and PEG/PLGA films in PBS. Format: physicochemical. Conditions: PBS 37° C. As for the experimental part:
Ibuprofen and Salicylic acid were used as model drugs to characterize the release profiles of breath figure polymer films. The equivalent non-porous smooth films were used as controls. In vitro release studies were carried out by incubating 1.5 cm side square drug incorporated films in 15 ml of PBS medium at 37° C. and stirred gently using a magnetic stirrer. At specific time intervals, 0.650 ml aliquots of the solution was withdrawn and centrifuged to remove any possible debris from the degrading polymer. Then, the aliquot was returned to the vial after measuring the absorbance to quantify drug release. The pH of the medium was monitored during the course of the experiment to verify that the solution is buffered adequately during polymer degradation. Ibuprofen and salicylic acid release were quantified through the absorbance at 221 and 296 nm, respectively. Standard calibration plots of ibuprofen and salicylic acid absorbance were constructed to correlate absorbance with drug release levels. All experiments were conducted in triplicate.
The release profile of breath figure PLGA and PEG/PLGA films was carried out in PBS medium (pH 7.4, 0.1M), incubated at 37° C. A non-porous film with the equivalent amount of drug dispersed was used as control. […] FIG. 14 illustrates the cumulative release of salicylic acid from the PLGA film and PEG/PLGA film, respectively, for a period of 2 days. […]

The mark [16] stands for this setting: blood, read-out: concentration in Blood.
[17] abbreviates: urine, read-out: concentration in Urine.
[18] abbreviates: mice, micronized fenofibrate 50 mg/kg/day oral, n = 4.
Setting [19] is: mice, micronized fenofibrate 50 mg/kg/day oral, n = 6.

These results are taken from patent US10653822B2, “Drug delivery devices and methods of making and using same” (The Administrators of the Tulane Educational Fund, priority 2012, dated 2020).

Where two headings read alike, the source gives them in different places.

Regarding `O=c1[nH]cc(F)c(=O)[nH]1` [5-FU, 5-fluorouracil], in [1], the “continuous release of drug after the lag phase” value is 21 days, the “duration of sharp increase in drug release after the delay” value is on record as 10 days and the “lag period after the sharp release phase” value was 2 to 3 days. In addition, the “delay of the initial release by sealing” value in data set [1] (sealed top layer) lay within 3 to 5 days. The “burst effect in the first 24 hours of incubation” value in [1] (sealed top layer, 0.1, 0.4, 2 mg 5-FU) is listed as “no burst effect”. Also, the “water solubility (in words)” value in [2] is on record as “highly water soluble”. For the same compound, the “killing efficiency (percent of cells killed vs PLGA film without drug)” value in data set [3] (double-layered film with 0.1 mg 5-FU, samples from >15 days of incubation) is reported as “about 75%”. In data set [3] (double-layered film with 0.4 mg 5-FU), the “total incubation with culture medium until maximum cytotoxicity” value is 4 to 5 days.

Turning to `CC(C)(Oc1ccc(C(=O)c2ccc(Cl)cc2)cc1)C(=O)O` [FA, fenofibric acid], the “FA detected after FF incubation in filtered conditioned medium” value in data set [4] is “did not detect any traces”. Moreover, the concentration at 4 weeks in data set [5] (setting [16]) came out at 3.33 µM. Also, in data set [5] (setting [17]), the concentration at 4 weeks is 5.34 µM. For the same compound, the “concentration in Intracranial tumor” value in [5] (mice with intracranial LN-229, micronized fenofibrate 50 mg/kg/day oral, n = 6) amounted to 0 nmol/mg. In data set [5] (setting [18]), the “concentration in Heart” value was 1.31 ± 1.4 nmol/mg and the “concentration in Spleen” value was determined as 1.33 ± 1.1 nmol/mg. The “concentration in Brain” value in data set [5] (mice, micronized fenofibrate 50 mg/kg/day oral, n = 5) stood at 0.06 ± 0.1 nmol/mg. Further, in [5] (setting [19]), the “concentration in Kidneys” value worked out at 1.5 ± 0.8 nmol/mg, the “concentration in Liver” value is 11.35 ± 3.9 nmol/mg and the “concentration in Lungs” value turned out to be 0.36 ± 04 nmol/mg. Besides, the BBB permeability coefficient in data set [6] is 11.3 ×10⁻⁶ cm/s. In addition, in data set [7], the “amount in cytosolic fraction” value worked out at 0.57 nmol.

In the case of `CC(C)OC(=O)C(C)(C)Oc1ccc(C(=O)c2ccc(Cl)cc2)cc1` [FF, fenofibrate], the “decrease of FF peak in human blood” value in data set [8] was “about 5 fold”. In addition, the “time of maximal intracellular concentration” value in [4] (human, 50 µM) was 24 h. In addition, the concentration at 4 weeks in data set [5] (setting [16]) and in data set [5] (setting [17]) was 0 µM throughout. Also, in [9], the “stability in culture medium” value is listed as “at least 120 h”. Moreover, the “amount in cytosolic fraction” value in data set [10] is recorded as 2.40 nmol.

Regarding `Cc1ccc(C)c(OCCCC(C)(C)C(=O)O)c1` [Gemfibrozil, gemfibrozil], the “inhibition of clonal growth of LN-229 cells” value in data set [11] is on record as “not able to reproduce them”.

As to `CO[C@@]12[C@H](COC(N)=O)C3=C(C(=O)C(C)=C(N)C3=O)N1C[C@@H]1N[C@@H]12` [MMC, mitomycin C], the “toxic effect of degraded products on COS-1 cells” value in data set [12] is reported as “no toxic effect”. For the same compound, in [13], the “active drug released from the film” value is recorded as 20-40%. For the same compound, in [14] (50 day incubation, 23 degrees C.), the “loss of activity in PBS at 23 degrees C.” value is “approximately 15%”. Moreover, the “loss of activity in PBS at 37 degrees C.” value in [14] (50 day incubation, 37 degrees C.) is given as around 50%. Moreover, the “activity in PBS at 4 degrees C.” value in [14] (50 days, 4 degrees C.) is listed as “retained its activity”. In addition, in data set [14] (spin-cast PLGA film), the “loss of activity after dissolving in PLGA-dichloromethane and spin-casting” value turned out to be 100%.

With `Cc1cccc(Nc2cc(Cl)nc(SCC(=O)O)n2)c1C` [Wy-14,643], the “inhibition of clonal growth of LN-229 cells” value in [11] is “not able to reproduce them”.

Turning to `CC(C)Cc1ccc(C(C)C(=O)O)cc1` (stereo not shown) [ibuprofen], the “duration of release from films” value in data set [15] is “at least 14 days”. For the same compound, in data set [2], the water solubility was below 500 µg/mL.

`O=C(O)c1ccccc1O` [salicylic acid]: in data set [2], the water solubility was above 2000 µg/mL.
